Measurements reported in patent US9314485B2, “Use of PI3K M-TOR and AKT inhibitors to induce FOXP3 expression and generate regulatory T cells” (Medical Research Council, priority 2006, dated 2016).
pIC50: −log10 of the molar value.

Key:
[1] = system: naive CD62LhiCD4+CD25− LN T cells; assay: Foxp3 induction in newly activated naive CD4 T cells (intracellular staining); type: cell-based, mouse
Method: Mouse strains, cell sorting and culture Animal work was carried out according the Animals (Scientific Procedures) Act, UK. Lymph node (LN) cells were stained, analysed and sorted by flow cytometry as described (Cobb et al 2005 J. Exp. Med. 201: 1367-1373). Intracellular staining for Foxp3 protein was done as advised by the manufacturers (eBiosciences.com). The phosphorylation syatus of S6 ribosomal protein was determined using anti pS6 Ser235/236 (Cellsignaling cat.no. 2211, http://www.cellsignal.com) using the eBioscience Foxp3 staining kit and anti rabbit IgG-FITC or IgG-Cy5 (Jackson Immunoresearch). For induction of Foxp3 expression, sorted LN CD4+ CD25− CD62Lhi T cells were cultured at 1-3×10^6/ml with plate bound anti-TCRβ. […] After 18 hours the cells were either left in place for continued TCR stimulation or moved to uncoated wells with the indicated additives. To assess regulatory function, CD4 T cells cultured as indicated were titrated into round bottom wells containing either 1×10^5 CFSE labeled total LN cells or 5×10^4 CFSE labeled CD4^+ CD25^− T cells and 1×10^5 mitomycin-C treated (25 μg/ml, 20 min, 37° C.) T cell depleted splenocytes with the indicated concentrations of anti CD3 (2C11, Pharmingen). CD4 T cell CFSE profiles were recorded between 48 and 72 hours later.
Mice, Cell Sorting and Culture. Animal work was carried out according to the Animals (Scientific Procedures) Act, UK. Lymph node (LN) cells or thymocytes from wild type were stained, analysed and sorted by flow cytometry as described (Thompson et al., 2007 Immunity VoI 26 pp 335-344) from wild type (C57BL/6, BALB/c or C57BL/6×129) mice or from Rag1 deficient H2^b AND TCR transgenic mice. Antigen presenting cells were derived from bone marrow in the presence of GM-CSF and incubated with antigenic peptide. Intracellular staining for Foxp3 protein was done as advised by the manufacturers (eBiosciences.com). The phosphorylation status of S6 ribosomal protein was determined using anti pS6 Ser235/236 (Cell Signaling cat.no. 2211, http://www.cellsignal.com) using the eBioscience Foxp3 staining kit and anti rabbit IgG-FITC or IgG-Cy5 (Jackson ImmunoResearch). […] After 18 hours the cells were either left in place for continued TCR stimulation or moved to uncoated wells with the indicated additives. To assess regulatory function, CD4 T cells cultured as indicated were titrated into round bottom wells containing either 1×10^5 CFSE labeled total LN cells or 5×10^4 CFSE labeled CD4^+CD25^− T cells and 1×10^5 mitomycin-C treated (25 μg/ml, 20 min, 37° C.) T cell depleted splenocytes with the indicated concentrations of anti CD3 (2C11, Pharmingen). CD4 T cell CFSE profiles were recorded between 48 and 72 hours later.

DNA-PK = DNA-PK (Homo sapiens, UniProt P78527); settings: unit inferred; read-out: Specificity for DNA-PK (IC50 determined in vitro); cited from earlier work
p110δ = p110δ (Homo sapiens, UniProt O00329); settings: unit inferred; read-out: Specificity for p110δ (IC50 determined in vitro); cited from earlier work
PI5P4KIIβ = target: T1, PI5P4KIIβ (Homo sapiens, UniProt P78356); settings: unit inferred; read-out: Specificity for PI5P4KIIβ (IC50 determined in vitro); cited from earlier work
T1 sequence (P78356 1-416): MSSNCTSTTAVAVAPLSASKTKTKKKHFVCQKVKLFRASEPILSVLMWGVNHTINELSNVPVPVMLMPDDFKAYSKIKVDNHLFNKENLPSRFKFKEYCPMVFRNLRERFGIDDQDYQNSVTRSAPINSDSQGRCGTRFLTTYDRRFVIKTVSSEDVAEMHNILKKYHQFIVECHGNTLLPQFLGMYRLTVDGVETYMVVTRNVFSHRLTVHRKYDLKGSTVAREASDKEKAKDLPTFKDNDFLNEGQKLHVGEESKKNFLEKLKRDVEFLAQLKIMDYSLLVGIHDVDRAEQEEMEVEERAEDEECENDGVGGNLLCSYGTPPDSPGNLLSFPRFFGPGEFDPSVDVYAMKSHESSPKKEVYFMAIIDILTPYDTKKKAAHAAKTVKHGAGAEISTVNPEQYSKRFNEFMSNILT

hsVPS34 = hsVPS34 (Homo sapiens, UniProt Q8NEB9); settings: unit inferred; read-out: Specificity for hsVPS34 (IC50 determined in vitro); cited from earlier work
mTORC1 = mTORC1 (Homo sapiens, UniProt P42345); settings: unit inferred; read-out: Specificity for mTORC1 (IC50 determined in vitro); cited from earlier work
p110α = p110α (Homo sapiens, UniProt P42336); settings: unit inferred; read-out: Specificity for p110α (IC50 determined in vitro); cited from earlier work
PI4P5KIα [2] = settings: second PI4P5KIα line; unit inferred; read-out: Specificity for PI4P5KIα (IC50 determined in vitro); cited from earlier work
PI4KIIIα = PI4KIIIα (Homo sapiens, UniProt P42356); settings: unit inferred; read-out: Specificity for PI4KIIIα (IC50 determined in vitro); cited from earlier work
PI4KIIα = PI4KIIα (Homo sapiens, UniProt Q9BTU6); settings: unit inferred; read-out: Specificity for PI4KIIα (IC50 determined in vitro); cited from earlier work
mTORC2 = mTORC2 (Homo sapiens, UniProt P42345); settings: unit inferred; read-out: Specificity for mTORC2 (IC50 determined in vitro); cited from earlier work
p110γ = p110γ (Homo sapiens, UniProt P48736); settings: unit inferred; read-out: Specificity for p110γ (IC50 determined in vitro); cited from earlier work
PI3KC2α = PI3KC2α (Homo sapiens, UniProt O00443); settings: unit inferred; read-out: Specificity for PI3KC2α (IC50 determined in vitro); cited from earlier work
PI4KIIIβ = PI4KIIIβ (Homo sapiens, UniProt Q9UBF8); settings: unit inferred; read-out: Specificity for PI4KIIIβ (IC50 determined in vitro); cited from earlier work
ATM = ATM (Homo sapiens, UniProt Q13315); settings: unit inferred; read-out: Specificity for ATM (IC50 determined in vitro); cited from earlier work
p110β = p110β (Homo sapiens, UniProt P42338); settings: unit inferred; read-out: Specificity for p110β (IC50 determined in vitro); cited from earlier work
PI4P5KIα [3] = target: PI4P5KIα (Homo sapiens, UniProt Q99755); settings: first PI4P5KIα line; unit inferred; read-out: Specificity for PI4P5KIα (IC50 determined in vitro); cited from earlier work
PI3KC2β = PI3KC2β (Homo sapiens, UniProt O00750); settings: unit inferred; read-out: Specificity for PI3KC2β (IC50 determined in vitro); cited from earlier work
PI3KC2γ = PI3KC2γ (Homo sapiens, UniProt O75747); settings: unit inferred; read-out: Specificity for PI3KC2γ (IC50 determined in vitro); cited from earlier work
ATR = ATR (Homo sapiens, UniProt Q13535); settings: unit inferred; read-out: Specificity for ATR (IC50 determined in vitro); cited from earlier work

Sequence of ATM (Q13315 whole entry, species assumed): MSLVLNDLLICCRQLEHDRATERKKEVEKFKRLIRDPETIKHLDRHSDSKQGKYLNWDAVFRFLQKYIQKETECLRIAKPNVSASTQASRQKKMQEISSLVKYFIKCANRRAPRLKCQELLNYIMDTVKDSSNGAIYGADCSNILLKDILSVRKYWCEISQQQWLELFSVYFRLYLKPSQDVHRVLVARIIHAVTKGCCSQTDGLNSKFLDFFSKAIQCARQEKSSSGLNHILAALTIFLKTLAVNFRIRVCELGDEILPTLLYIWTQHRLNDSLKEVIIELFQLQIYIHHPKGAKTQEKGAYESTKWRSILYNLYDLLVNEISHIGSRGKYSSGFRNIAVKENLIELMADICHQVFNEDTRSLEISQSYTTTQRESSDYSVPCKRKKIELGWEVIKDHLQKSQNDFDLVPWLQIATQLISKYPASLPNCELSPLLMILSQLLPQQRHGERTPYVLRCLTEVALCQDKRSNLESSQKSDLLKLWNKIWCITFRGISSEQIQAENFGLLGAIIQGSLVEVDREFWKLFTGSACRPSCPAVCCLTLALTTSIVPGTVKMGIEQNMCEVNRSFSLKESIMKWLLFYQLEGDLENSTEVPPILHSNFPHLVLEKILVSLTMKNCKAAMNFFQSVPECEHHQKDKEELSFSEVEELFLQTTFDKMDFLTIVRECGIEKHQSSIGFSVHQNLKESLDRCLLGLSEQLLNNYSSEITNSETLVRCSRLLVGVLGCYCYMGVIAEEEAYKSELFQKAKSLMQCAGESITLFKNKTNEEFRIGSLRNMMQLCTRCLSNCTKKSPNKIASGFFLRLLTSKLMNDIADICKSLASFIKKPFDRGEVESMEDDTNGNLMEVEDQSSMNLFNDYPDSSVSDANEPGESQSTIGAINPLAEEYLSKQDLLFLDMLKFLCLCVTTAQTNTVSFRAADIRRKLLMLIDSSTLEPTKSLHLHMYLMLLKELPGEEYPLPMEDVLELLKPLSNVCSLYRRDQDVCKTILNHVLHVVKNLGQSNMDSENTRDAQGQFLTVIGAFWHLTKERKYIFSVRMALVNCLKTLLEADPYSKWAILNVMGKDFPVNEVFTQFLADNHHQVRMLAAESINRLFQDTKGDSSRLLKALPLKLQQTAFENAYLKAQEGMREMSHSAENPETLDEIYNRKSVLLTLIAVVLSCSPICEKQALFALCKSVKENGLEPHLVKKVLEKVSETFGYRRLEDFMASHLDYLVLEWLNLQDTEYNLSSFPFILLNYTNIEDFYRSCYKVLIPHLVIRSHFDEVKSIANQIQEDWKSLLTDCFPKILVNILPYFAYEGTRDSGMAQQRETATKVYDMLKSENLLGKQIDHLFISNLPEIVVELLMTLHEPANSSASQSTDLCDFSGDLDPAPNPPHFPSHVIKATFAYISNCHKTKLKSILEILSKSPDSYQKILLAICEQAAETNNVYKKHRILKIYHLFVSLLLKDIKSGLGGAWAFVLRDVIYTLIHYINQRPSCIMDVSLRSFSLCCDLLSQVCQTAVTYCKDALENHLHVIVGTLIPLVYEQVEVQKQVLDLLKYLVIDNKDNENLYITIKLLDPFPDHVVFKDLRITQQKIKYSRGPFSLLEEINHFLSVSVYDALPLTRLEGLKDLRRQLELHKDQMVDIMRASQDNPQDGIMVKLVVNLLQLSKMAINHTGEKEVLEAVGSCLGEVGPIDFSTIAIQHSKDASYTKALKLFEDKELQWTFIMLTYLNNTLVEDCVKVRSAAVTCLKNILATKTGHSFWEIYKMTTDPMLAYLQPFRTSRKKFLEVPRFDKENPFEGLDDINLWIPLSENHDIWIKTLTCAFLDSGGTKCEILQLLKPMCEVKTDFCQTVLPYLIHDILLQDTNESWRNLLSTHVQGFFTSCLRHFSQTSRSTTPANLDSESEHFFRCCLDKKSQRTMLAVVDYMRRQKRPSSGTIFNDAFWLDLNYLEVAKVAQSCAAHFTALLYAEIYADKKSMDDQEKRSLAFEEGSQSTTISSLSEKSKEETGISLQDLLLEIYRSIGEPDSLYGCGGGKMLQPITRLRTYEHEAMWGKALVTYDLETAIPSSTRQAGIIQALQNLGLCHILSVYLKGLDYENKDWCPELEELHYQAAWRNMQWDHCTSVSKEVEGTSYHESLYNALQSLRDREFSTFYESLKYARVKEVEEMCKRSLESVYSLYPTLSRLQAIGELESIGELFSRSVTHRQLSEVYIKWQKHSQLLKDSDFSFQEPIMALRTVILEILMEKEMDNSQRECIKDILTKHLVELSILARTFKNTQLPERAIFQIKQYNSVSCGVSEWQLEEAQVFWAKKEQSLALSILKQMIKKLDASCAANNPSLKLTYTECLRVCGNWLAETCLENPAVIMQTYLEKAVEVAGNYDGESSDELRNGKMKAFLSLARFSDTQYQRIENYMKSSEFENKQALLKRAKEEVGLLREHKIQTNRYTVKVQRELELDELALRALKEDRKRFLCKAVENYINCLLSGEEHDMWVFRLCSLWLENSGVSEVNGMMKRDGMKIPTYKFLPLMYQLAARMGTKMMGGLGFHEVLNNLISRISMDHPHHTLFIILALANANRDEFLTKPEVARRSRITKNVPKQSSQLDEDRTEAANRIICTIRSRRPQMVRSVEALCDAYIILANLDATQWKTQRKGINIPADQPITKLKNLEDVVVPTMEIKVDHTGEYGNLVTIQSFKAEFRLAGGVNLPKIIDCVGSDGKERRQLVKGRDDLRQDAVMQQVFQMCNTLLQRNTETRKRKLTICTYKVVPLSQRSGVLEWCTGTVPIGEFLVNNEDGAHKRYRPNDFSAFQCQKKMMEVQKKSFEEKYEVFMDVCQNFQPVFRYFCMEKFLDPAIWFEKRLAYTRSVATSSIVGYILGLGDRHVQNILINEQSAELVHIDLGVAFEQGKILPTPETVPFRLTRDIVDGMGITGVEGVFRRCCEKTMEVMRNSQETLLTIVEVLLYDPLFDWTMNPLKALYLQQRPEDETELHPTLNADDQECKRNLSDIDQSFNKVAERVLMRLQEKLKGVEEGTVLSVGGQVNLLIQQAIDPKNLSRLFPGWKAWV
Sequence of PI4KIIIβ (Q9UBF8 whole entry): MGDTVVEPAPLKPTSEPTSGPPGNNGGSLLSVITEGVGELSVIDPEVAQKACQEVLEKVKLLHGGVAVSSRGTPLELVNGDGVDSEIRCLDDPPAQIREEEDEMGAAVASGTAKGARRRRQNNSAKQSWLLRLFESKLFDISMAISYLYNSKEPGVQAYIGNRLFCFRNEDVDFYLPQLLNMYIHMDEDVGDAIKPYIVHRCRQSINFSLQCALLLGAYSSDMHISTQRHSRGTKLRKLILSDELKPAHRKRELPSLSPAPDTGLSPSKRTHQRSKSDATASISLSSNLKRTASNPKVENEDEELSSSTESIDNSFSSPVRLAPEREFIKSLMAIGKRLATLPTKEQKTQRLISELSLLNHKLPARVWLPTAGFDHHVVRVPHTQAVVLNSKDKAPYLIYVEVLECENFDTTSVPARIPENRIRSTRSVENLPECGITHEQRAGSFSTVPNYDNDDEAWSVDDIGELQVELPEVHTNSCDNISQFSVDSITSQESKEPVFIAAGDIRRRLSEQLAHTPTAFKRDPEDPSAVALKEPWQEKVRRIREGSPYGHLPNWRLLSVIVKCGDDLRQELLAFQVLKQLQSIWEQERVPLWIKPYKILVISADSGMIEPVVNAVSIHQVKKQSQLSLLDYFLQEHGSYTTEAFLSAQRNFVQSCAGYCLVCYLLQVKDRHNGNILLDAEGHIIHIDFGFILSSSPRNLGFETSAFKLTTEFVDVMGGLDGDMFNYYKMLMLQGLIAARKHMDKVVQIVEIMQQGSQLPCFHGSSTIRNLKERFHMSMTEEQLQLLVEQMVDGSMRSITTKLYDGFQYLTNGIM
Sequence of hsVPS34 (Q8NEB9 whole entry): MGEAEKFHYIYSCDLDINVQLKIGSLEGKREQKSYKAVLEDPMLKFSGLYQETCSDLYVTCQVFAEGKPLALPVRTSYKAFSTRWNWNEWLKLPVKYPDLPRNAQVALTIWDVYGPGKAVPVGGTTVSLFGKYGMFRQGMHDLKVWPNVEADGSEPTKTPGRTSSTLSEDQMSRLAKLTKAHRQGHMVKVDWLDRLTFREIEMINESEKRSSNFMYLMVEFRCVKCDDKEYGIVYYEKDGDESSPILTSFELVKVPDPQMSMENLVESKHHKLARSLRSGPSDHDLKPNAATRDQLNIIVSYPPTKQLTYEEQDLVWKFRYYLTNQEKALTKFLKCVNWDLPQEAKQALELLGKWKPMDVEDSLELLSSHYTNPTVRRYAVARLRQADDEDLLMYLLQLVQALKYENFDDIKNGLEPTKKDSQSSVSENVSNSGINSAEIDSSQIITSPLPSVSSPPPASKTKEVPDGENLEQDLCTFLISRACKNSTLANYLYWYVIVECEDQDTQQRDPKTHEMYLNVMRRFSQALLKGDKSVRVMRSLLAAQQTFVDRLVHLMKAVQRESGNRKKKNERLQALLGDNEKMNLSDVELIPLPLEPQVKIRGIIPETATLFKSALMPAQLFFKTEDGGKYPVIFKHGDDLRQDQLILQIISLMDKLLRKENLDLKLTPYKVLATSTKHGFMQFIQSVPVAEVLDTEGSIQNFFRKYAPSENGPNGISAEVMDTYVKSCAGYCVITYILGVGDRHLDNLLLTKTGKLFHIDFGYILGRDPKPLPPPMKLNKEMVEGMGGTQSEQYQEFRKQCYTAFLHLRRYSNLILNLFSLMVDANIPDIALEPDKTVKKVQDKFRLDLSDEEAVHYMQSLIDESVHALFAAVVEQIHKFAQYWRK

In the case of `Cc1ccccc1Oc1cccc2c(=O)cc(N3CCOCC3)[nH]c12` [TGX115], the “effect on Foxp3 expression at 0.1 μM” value ([1]; 0.1 μM) was “did not affect Foxp3 expression”, the “effect on Foxp3 expression at 10 μM” value [1] was “slight impact on Foxp3 expression” and the “effect on Foxp3 expression at 10 μM” value ([1]; listed as TGX-115) was “very little effect”. The pIC50 (DNA-PK) was 5.92, the pIC50 (p110δ) was 6.20 and the pIC50 (PI5P4KIIβ) was less than 4.00. For the same compound, the pIC50 (hsVPS34) was 5.28, the pIC50 (mTORC1) was less than 4.00 and the pIC50 (p110α) was 4.21. The pIC50 (PI4P5KIα [2]) was less than 4.00, the pIC50 (PI4KIIIα) was less than 4.00 and the pIC50 (PI4KIIα) was less than 4.00. For the same compound, the pIC50 (mTORC2) was less than 4.00, the pIC50 (p110γ) was 4.00 and the pIC50 (PI3KC2α) was less than 4.00. For the same compound, the pIC50 (PI4KIIIβ) was less than 4.00, the pIC50 (ATM) was 4.70 and the pIC50 (p110β) was 6.89. For the same compound, the pIC50 (PI4P5KIα [3]) was less than 4.00, the pIC50 (PI3KC2β) was 4.30 and the pIC50 (PI3KC2γ) was 4.00. For the same compound, the pIC50 (ATR) was less than 4.00.
